In the NIST ThermoML archive (doi:10.1021/je0201976):
Values joined by “and” are separate entries in the source; they are usually repeats but may differ in a detail not shown here. Equal values may be shown once. Numbers after ± are expanded uncertainties.

Settings: Liquid; for Critical pressure: Direct measurement; for Critical temperature: Visual observation in an unstirred cell

FC(F)C(F)(F)OCC(F)(F)C(F)(F)F [1,1,1,2,2-pentafluoro-3-(1,1,2,2-tetrafluoroethoxy)propane]
Settings | Critical density [kg/m3] | Critical pressure [kPa] | Critical temperature [K] | vapor or sublimation pressure [kPa]
– | 550 ± 2 | 2244 ± 5 | 473.01 ± 0.1 | –
299.64 K | – | – | – | 17.7 ± 1
332.69 K | – | – | – | 69.8 ± 1
337.7 K | – | – | – | 84 ± 1
342.7 K | – | – | – | 100.3 ± 1
347.73 K | – | – | – | 119.2 ± 1.1
352.74 K | – | – | – | 140.6 ± 1.1
362.76 K | – | – | – | 192.2 ± 1.1
372.78 K | – | – | – | 256.8 ± 1.2
382.81 K | – | – | – | 337.6 ± 1.4
392.84 K | – | – | – | 436.3 ± 1.6
402.86 K | – | – | – | 555.1 ± 1.9
412.89 K | – | – | – | 700 ± 2.2
422.91 K | – | – | – | 868.6 ± 2.7
432.95 K | – | – | – | 1066.1 ± 3.3
442.97 K | – | – | – | 1298 ± 4.1
447.99 K | – | – | – | 1427.4 ± 4.5
453 K | – | – | – | 1567.3 ± 4.9
458.02 K | – | – | – | 1718.4 ± 5.4
464.03 K | – | – | – | 1914.1 ± 6
468.05 K | – | – | – | 2055.2 ± 6.4
473.08 K | – | – | – | 2246.6 ± 7

FC(F)COC(F)(F)C(F)F [1,1,2,2-tetrafluoro-2-(2,2-difluoroethoxy)ethane]
Settings | Critical density [kg/m3] | Critical pressure [kPa] | Critical temperature [K] | vapor or sublimation pressure [kPa]
– | 520 ± 2 | 3090 ± 9 | 501.08 ± 0.08 | –
300.91 K | – | – | – | 12.8 ± 1
322.65 K | – | – | – | 33.9 ± 1
332.67 K | – | – | – | 50.8 ± 1
342.69 K | – | – | – | 75 ± 1
352.73 K | – | – | – | 106.1 ± 1.1
362.73 K | – | – | – | 147.5 ± 1.1
372.78 K | – | – | – | 202.5 ± 1.2
382.8 K | – | – | – | 268.1 ± 1.3
392.83 K | – | – | – | 351.4 ± 1.4
402.87 K | – | – | – | 453.5 ± 1.6
412.89 K | – | – | – | 576.7 ± 1.9
422.92 K | – | – | – | 723.9 ± 2.3
432.95 K | – | – | – | 898.2 ± 2.8
442.97 K | – | – | – | 1102.4 ± 3.4
453 K | – | – | – | 1341.6 ± 4.2
463.02 K | – | – | – | 1615.4 ± 5
473.05 K | – | – | – | 1931 ± 6
482.09 K | – | – | – | 2256.7 ± 7
491.9 K | – | – | – | 2658.1 ± 8.3
497.81 K | – | – | – | 2932.7 ± 9.1
501.3 K | – | – | – | 3101.6 ± 9.7

FC(F)(F)COCC(F)(F)F [1,1,1-trifluoro-2-(2,2,2-trifluoroethoxy)ethane]
Settings | Critical density [kg/m3] | Critical pressure [kPa] | Critical temperature [K] | vapor or sublimation pressure
– | 500 ± 2 | 2783 ± 5 | 476.31 ± 0.09 | –
293.4 K | – | – | – | 18 ± 1 kPa
293.59 K | – | – | – | 18.2 ± 1 kPa
303.09 K | – | – | – | 27.9 ± 1 kPa
303.12 K | – | – | – | 28 ± 1 kPa
313.12 K | – | – | – | 42.6 ± 1 kPa
313.14 K | – | – | – | 42.8 ± 1 kPa
323.15 K | – | – | – | 63.3 ± 1 kPa
323.17 K | – | – | – | 63.4 ± 1 kPa
333.2 K | – | – | – | 91.3 ± 1 kPa and 91.4 ± 1 kPa
338.22 K | – | – | – | 109 ± 1.1 kPa
343.24 K | – | – | – | 129.2 ± 1.1 kPa
353.27 K | – | – | – | 178.3 ± 1.1 kPa
353.28 K | – | – | – | 178.3 ± 1.1 kPa
363.31 K | – | – | – | 241.1 ± 1.2 kPa
373.34 K | – | – | – | 320 ± 1.4 kPa
373.35 K | – | – | – | 320.1 ± 1.4 kPa
383.38 K | – | – | – | 417.4 ± 1.6 kPa and 417.3 ± 1.6 kPa
393.43 K | – | – | – | 536.2 ± 1.8 kPa and 536.3 ± 1.8 kPa

COCC(F)(F)C(F)F [1,1,2,2-tetrafluoro-3-methoxypropane]
Settings | Critical density [kg/m3] | Critical pressure [kPa] | Critical temperature [K] | vapor or sublimation pressure [kPa]
– | 453 ± 2 | 3279 ± 6 | 505.35 ± 0.13 | –
342.68 K | – | – | – | 84.8 ± 1
347.65 K | – | – | – | 101.2 ± 1.1
352.72 K | – | – | – | 120.5 ± 1.1
362.75 K | – | – | – | 166.1 ± 1.1
372.76 K | – | – | – | 222.7 ± 1.2
382.79 K | – | – | – | 293.4 ± 1.3
392.8 K | – | – | – | 379.9 ± 1.5
402.8 K | – | – | – | 484.3 ± 1.8
412.88 K | – | – | – | 610.7 ± 2.1
422.91 K | – | – | – | 758.8 ± 2.5
432.93 K | – | – | – | 934.8 ± 3
442.97 K | – | – | – | 1138.1 ± 3.7
452.99 K | – | – | – | 1373.5 ± 4.5
463.01 K | – | – | – | 1642.8 ± 5.3
473.02 K | – | – | – | 1952 ± 6.3
480.13 K | – | – | – | 2197.3 ± 7.1
489.95 K | – | – | – | 2573.3 ± 8.3
499.77 K | – | – | – | 3005.9 ± 9.7
505.06 K | – | – | – | 3262.8 ± 11
505.35 K | – | – | – | 3278.9 ± 11
